Reference: patent US20110190503A1, “Thiazolopyridin-2-yloxy-phenyl and thiazolopyrazin-2-yloxy-phenyl amines as modulators of leukotriene A4 hydrolase” (Janssen Pharmaceutical NV, priority 2008, published 2011)
Where a name gives a salt, the structure may show the parent alone.

Biological target: T1, recombinant human LTA4 hydrolase (rhLTA4H) (Homo sapiens, UniProt P09960)
T1 construct: made in house; host or cells: Spodoptera frugiperda (Sf-9) cells, recombinant baculovirus (pFastBac1)
T1 sequence (P09960 1-611): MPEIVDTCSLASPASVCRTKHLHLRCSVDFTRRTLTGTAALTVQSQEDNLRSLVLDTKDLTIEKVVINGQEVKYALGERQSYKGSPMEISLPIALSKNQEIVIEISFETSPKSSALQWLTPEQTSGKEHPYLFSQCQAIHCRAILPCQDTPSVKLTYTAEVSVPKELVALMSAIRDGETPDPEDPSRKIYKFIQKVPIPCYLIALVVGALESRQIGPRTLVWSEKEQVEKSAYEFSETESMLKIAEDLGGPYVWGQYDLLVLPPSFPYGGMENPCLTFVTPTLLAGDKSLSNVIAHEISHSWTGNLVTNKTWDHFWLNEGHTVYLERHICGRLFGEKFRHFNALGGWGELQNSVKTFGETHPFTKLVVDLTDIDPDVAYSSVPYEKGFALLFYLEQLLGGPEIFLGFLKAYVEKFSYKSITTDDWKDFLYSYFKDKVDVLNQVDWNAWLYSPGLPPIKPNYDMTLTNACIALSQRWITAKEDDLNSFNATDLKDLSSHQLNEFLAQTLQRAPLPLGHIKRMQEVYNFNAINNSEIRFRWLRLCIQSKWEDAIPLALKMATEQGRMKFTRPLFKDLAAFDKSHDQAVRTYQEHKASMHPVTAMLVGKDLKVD
Experiment: Recombinant human LTA4 hydrolase assay for LTA4 hydrolase inhibitor activity
Assay type: biochemical
Conditions: rhLTA4H, LTA4 substrate, LTB4 by immunoassay; single determination or average; read-out: IC50
Method: Assay 1: Recombinant Human LTA4 Hydrolase Assay for LTA4 Hydrolase Inhibitor Activity
Compounds of the present invention were tested for LTA4 hydrolase inhibitor activity against recombinant human LTA4 hydrolase (rhLTA4H). Vectors were prepared and used to express rhLTA4H essentially as follows: LTA4 hydrolase encoding DNA was amplified by polymerase chain reaction (PCR) using a human placental cDNA library as a template. […] The amplified 1.9 kb DNA fragment encoding LTA4 hydrolase was isolated and cloned into the pFastBac1 vector (Invitrogen). Recombinant baculovirus was generated as described by the manufacturer, and used to infect Spodoptera frugiperda (Sf-9) cells. […] The purified enzyme solution was adjusted to contain 0.29 mg/mL LTA4 hydrolase, 50 mM Tris (pH 8.0), 150 mM NaCl, 5 mM dithiothreitol, 50% glycerol, and EDTA-free Complete protease inhibitor cocktail (Roche).
LTA4 substrate was prepared from the methyl ester of LTA4 (Cayman Chemical) by treatment with 67 equiv of NaOH under nitrogen at rt for 40 min. The LTA4 substrate in its free acid form was kept frozen at −80° C. until needed. Each compound was diluted to different concentrations in assay buffer (from Assay Designs) containing 10% DMSO. A 25-μL aliquot of each compound dilution was incubated for 10 min at rt with an equal volume of assay buffer containing 10 ng of recombinant human LTA4H. The solution was then adjusted to 200 μL with assay buffer. […] Each reaction was carried out at rt for 30 min. The reaction was stopped by diluting 10 μL of the reaction mixture with 200 μL of assay buffer. LTB4 was quantified in the diluted sample by a commercially available enzyme-linked immunoassay (Cayman Chemical Co.), as recommended by the manufacturer. Positive controls, under essentially identical conditions but without addition of an inhibitor compound, and negative controls, containing all assay components except enzyme, were routinely run in each experiment. IC50 values were determined by nonlinear regression of the activity data at different compound concentrations using Graphpad Prism 4.0, one site binding competition.
The values presented here are the result of a single determination or an average of two or more determinations, as indicated in parentheses following each value. For compounds tested three or more times, the average value is followed by the standard deviation

IC50 | Structure (SMILES)
427 nM | Clc1ccc(SC2CCN(CCOc3ccc(Oc4nc5ncccc5s4)cc3)CC2)cc1 [Example 136, 2-[4-(2-{4-[(4-Chlorophenyl)sulfanyl]piperidin-1-yl}ethoxy)phenoxy][1,3]thiazolo[4,5-b]pyridine]
41 nM | c1cnc2nc(Oc3ccc(OCCNC4CC4)cc3)sc2c1 [Example 139, N-{2-[4-([1,3]Thiazolo[4,5-b]pyridin-2-yloxy)phenoxy]ethyl}cyclopropanamine]
138 nM | Cc1cnc2nc(Oc3ccc(OCCN4CCC(NC(=O)C(C)C)CC4)cc3)sc2c1 [Example 140, 2-Methyl-N-[1-(2-{4-[(6-methyl[1,3]thiazolo[4,5-b]pyridin-2-yl)oxy]phenoxy}ethyl)piperidin-4-yl]propanamide]
193 nM | Cc1ccnc2nc(Oc3ccc(OCCN4CCN(C(=O)c5ccncc5)CC4)cc3)sc12 [Example 143, 7-Methyl-2-(4-{2-[4-(pyridin-4-ylcarbonyl)piperazin-1-yl]ethoxy}phenoxy)[1,3]thiazolo[4,5-b]pyridine]
350 nM | O=C1CCCN1C1CCN(CCOc2ccc(Oc3nc4ccncc4s3)cc2)CC1 [Example 144, 1-(1-{2-[4-([1,3]Thiazolo[5,4-c]pyridin-2-yloxy)phenoxy]ethyl}piperidin-4-yl)pyrrolidin-2-one]
275 nM | Cc1cnc2nc(Oc3ccc(OCCN4CCC(C(=O)N5CCOCC5)CC4)cc3)sc2c1 [Example 145, 6-Methyl-2-(4-{2-[4-(morpholin-4-ylcarbonyl)piperidin-1-yl]ethoxy}phenoxy)[1,3]thiazolo[4,5-b]pyridine]
252 nM | O=C(c1ccco1)N1CCN(CCOc2ccc(Oc3nc4ncc(Cl)cc4s3)cc2)CC1 [Example 147, 6-Chloro-2-(4-{2-[4-(furan-2-ylcarbonyl)piperazin-1-yl]ethoxy}phenoxy)[1,3]thiazolo[4,5-b]pyridine]
602 nM | c1cnc2sc(Oc3ccc(OCCN4CCOCC4)cc3)nc2n1 [Example 150, 2-[4-(2-Morpholin-4-ylethoxy)phenoxy][1,3]thiazolo[4,5-b]pyrazine]
498 nM | CN1CCCN(CCOc2ccc(Oc3nc4cccnc4s3)cc2)CC1 [Example 152, 2-{4-[2-(4-Methyl-1,4-diazepan-1-yl)ethoxy]phenoxy}[1,3]thiazolo[5,4-b]pyridine]
194 nM | Cc1ccnc2nc(Oc3ccc(OCCN4CCC(O)(c5ccccn5)CC4)cc3)sc12 [Example 158, 1-(2-{4-[(7-Methyl[1,3]thiazolo[4,5-b]pyridin-2-yl)oxy]phenoxy}ethyl)-4-pyridin-2-ylpiperidin-4-ol]
535 nM | CC(C)(CO)NC(=O)C1CCN(CCOc2ccc(Oc3nc4cnccc4s3)cc2)CC1 [Example 161, N-(2-Hydroxy-1,1-dimethylethyl)-1-(2-{[4-([1,3]thiazolo[4,5-c]pyridin-2-yloxy)phenyl]oxy}ethyl)piperidine-4-carboxamide]
45 nM | FC(F)(F)C1CCN(CCOc2ccc(Oc3nc4cnccc4s3)cc2)CC1 [Example 164, 2-{[4-({2-[4-(Trifluoromethyl)piperidin-1-yl]ethyl}oxy)phenyl]oxy}[1,3]thiazolo[4,5-c]pyridine]
53 nM | CNC(=O)C1CCN(CCOc2ccc(Oc3nc4nccc(C)c4s3)cc2)CC1 [Example 165, N-Methyl-1-[2-({4-[(7-methyl[1,3]thiazolo[4,5-b]pyridin-2-yl)oxy]phenyl}oxy)ethyl]piperidine-4-carboxamide]
114 nM | Cc1ccnc2nc(Oc3ccc(OCCN4[C@@H]5CC[C@H]4C[C@@H](NC(=O)CN)C5)cc3)sc12 [Example 166, meso-N-{(3-endo)-8-[2-({4-[(7-Methyl[1,3]thiazolo[4,5-b]pyridin-2-yl)oxy]phenyl}oxy)ethyl]-8-azabicyclo[3.2.1]oct-3-yl}glycinamide hydrochloride]
647 nM | Cc1ccnc2nc(Oc3ccc(CN4CCN(c5ccncc5)CC4)cc3)sc12 [Example 168, 7-Methyl-2-({4-[(4-pyridin-4-ylpiperazin-1-yl)methyl]phenyl}oxy)[1,3]thiazolo[4,5-b]pyridine]
38 nM | c1cnc2sc(Oc3ccc(CCN4CCCCCC4)cc3)nc2n1 [Example 179, 2-{[4-(2-Azepan-1-ylethyl)phenyl]oxy}[1,3]thiazolo[4,5-b]pyrazine]

Continued, molecule first:

Structure (SMILES) | IC50
CS(=O)(=O)N1C[C@H]2C[C@@H]1CN2CCOc1ccc(Oc2nc3ccncc3s2)cc1 [Example 151, 2-(4-{2-[(1R,4R)-5-(Methylsulfonyl)-2,5-diazabicyclo[2.2.1]hept-2-yl]ethoxy}phenoxy)[1,3]thiazolo[5,4-c]pyridine] | 367 nM
CN(CCCN1CCCC1=O)CCOc1ccc(Oc2nc3ncc(Cl)cc3s2)cc1 [Example 155, 1-{3-[(2-{4-[(6-Chloro[1,3]thiazolo[4,5-b]pyridin-2-yl)oxy]phenoxy}ethyl)(methyl)amino]propyl}pyrrolidin-2-one] | 329 nM
OCCCN(CCOc1ccc(Oc2nc3ccncc3s2)cc1)CC1CC1 [Example 156, 3-[(Cyclopropylmethyl){2-[4-([1,3]thiazolo[5,4-c]pyridin-2-yloxy)phenoxy]ethyl}amino]propan-1-ol] | 494 nM
OCCN(CCOc1ccc(Oc2nc3cccnc3s2)cc1)CC1CC1 [Example 157, 2-[(Cyclopropylmethyl){2-[4-([1,3]thiazolo[5,4-b]pyridin-2-yloxy)phenoxy]ethyl}amino]ethanol] | 114 nM
c1cnc(N2CCN(Cc3ccc(Oc4nc5nccnc5s4)cc3)CC2)nc1 [Example 167, 2-({4-[(4-Pyrimidin-2-ylpiperazin-1-yl)methyl]phenyl}oxy)[1,3]thiazolo[4,5-b]pyrazine] | 432 nM
CC(=O)N1[C@@H]2CC[C@H]1C[C@H](NCc1ccc(Oc3nc4ncccc4s3)cc1)C2 [Example 170, meso-(3-exo)-8-Acetyl-N-{[4-([1,3]thiazolo[4,5-b]pyridin-2-yloxy)phenyl]methyl}-8-azabicyclo[3.2.1]octan-3-amine] | 29 nM
NC(=O)N1[C@@H]2CC[C@H]1CN(Cc1ccc(Oc3nc4ncccc4s3)cc1)C2 [Example 171, meso-3-{[4-([1,3]Thiazolo[4,5-b]pyridin-2-yloxy)phenyl]methyl}-3,8-diazabicyclo[3.2.1]octane-8-carboxamide] | 42 nM
Cc1cnc2nc(Oc3ccc(CN4CCC(C(=O)N(C)C)CC4)cc3)sc2c1 [Example 172, N,N-Dimethyl-1-({4-[(6-methyl[1,3]thiazolo[4,5-b]pyridin-2-yl)oxy]phenyl}methyl)piperidine-4-carboxamide] | 26 nM
O=C(Cc1cccs1)N1CCN(Cc2ccc(Oc3nc4nccnc4s3)cc2)CC1 [Example 173, 2-[(4-{[4-(2-Thienylacetyl)piperazin-1-yl]methyl}phenyl)oxy][1,3]thiazolo[4,5-b]pyrazine] | 388 nM
CCN(CCc1ccc(Oc2nc3cccnc3s2)cc1)C1CC1 [Example 174, N-Ethyl-N-{2-[4-([1,3]thiazolo[5,4-b]pyridin-2-yloxy)phenyl]ethyl}cyclopropanamine] | 94 nM
CN(Cc1ccc(Oc2nc3ccncc3s2)cc1)C1CCCCC1 [Example 175, N-Methyl-N-[4-([1,3]thiazolo[5,4-c]pyridin-2-yloxy)benzyl]cyclohexanamine] | 791 nM
CC(=O)N1CCN(CCc2ccc(Oc3nc4ccncc4s3)cc2)CC1 [Example 176, 2-{4-[2-(4-Acetylpiperazin-1-yl)ethyl]phenoxy}[1,3]thiazolo[5,4-c]pyridine] | 835 nM
O=C1CCN(CCc2ccc(Oc3nc4nccnc4s3)cc2)CCN1 [Example 177, 1-{2-[4-([1,3]Thiazolo[4,5-b]pyrazin-2-yloxy)phenyl]ethyl}-1,4-diazepan-5-one] | 624 nM
